Experimental data: patent US20070031342A1, “Sustained release microparticles for pulmonary delivery” (Nektar Therapeutics, priority 2005, published 2007)
Read-outs that look alike come from different tables or passages of the source.

Assays:
[1] = cited from earlier work
[2] = Rabbit aerosol inhalation model, serum sCT concentration after intratracheal aerosol administration; assay type: in vivo; conditions: single intratracheal aerosol administration
Procedure: The in vivo dissolution properties of the composition were determined in a rabbit aerosol inhalation model. In this test, the serum sCT concentration was measured for increasing time following intratracheal aerosol administration for sustained release microparticles comprising 20% w/w encapsulated sCT and compared to the concentration of a control sample comprising neat 20% w/w sCT powder. […] In contrast, the absorption of the encapsulated sCT of the microparticles reaches its maximum blood levels at 4 hours post administration and are sustained to at least 24 hours. […] Accordingly, the encapsulated sCT microparticles prepared according to the above method provide improved sustain release results over the unencapsulated sCT, by increasing the duration over which the drug is released to provide a more controlled dose of the sCT drug.

For `CCCC1O[C@@H]2C[C@H]3[C@@H]4CCC5=CC(=O)C=C[C@]5(C)[C@H]4[C@@H](O)C[C@]3(C)[C@]2(C(=O)CO)O1` (stereo partly drawn) [budesonide], the tmax ([1]; following inhalation delivery, Pulmicort Turbuhaler) is listed as roughly 30 min, the absolute bioavailability ([1]; inhaled) is listed as 39% and the bioavailability ([1]; nasal) is listed as 21±6%. The bioavailability ([1]; oral) was 10.7±4.3%.
In the case of `CC(C)C[C@H](NC(=O)[C@H](CCCCN)NC(=O)CNC(=O)[C@H](CC(C)C)NC(=O)[C@@H](NC(=O)[C@@H]1CSSC[C@H](N)C(=O)N[C@@H](CO)C(=O)N[C@@H](CC(N)=O)C(=O)N[C@@H](CC(C)C)C(=O)N[C@@H](CO)C(=O)N[C@@H]([C@@H](C)O)C(=O)N1)C(C)C)C(=O)N[C@@H](CO)C(=O)N[C@@H](CCC(N)=O)C(=O)N[C@@H](CCC(=O)O)C(=O)N[C@@H](CC(C)C)C(=O)N[C@@H](Cc1c[nH]cn1)C(=O)N[C@@H](CCCCN)C(=O)N[C@@H](CC(C)C)C(=O)N[C@@H](CCC(N)=O)C(=O)N[C@H](C(=O)N[C@@H](Cc1ccc(O)cc1)C(=O)N1CCC[C@H]1C(=O)N[C@@H](CCCNC(=N)N)C(=O)N[C@H](C(=O)N[C@@H](CC(N)=O)C(=O)N[C@H](C(=O)NCC(=O)N[C@@H](CO)C(=O)NCC(=O)N[C@H](C(=O)N1CCC[C@H]1C(N)=O)[C@@H](C)O)[C@@H](C)O)[C@@H](C)O)[C@@H](C)O` [neat salmon calcitonin], the tmax ([2]; serum, inhaled or intranasal, read-out: time to maximum concentration in the blood (converted)) is reported as 15 min and the “time after which blood levels return to baseline” value [2] is reported as 3 h.
